Values joined by “and” are separate entries in the source; they are usually repeats but may differ in a detail not shown here. Equal values may be shown once.

We go through three compounds from US8486900B2, “Method for preparing a Centella asiatica extract rich in madecassoside and in terminoloside” (Bayer Consumer Care AG, priority 2002, dated 2013).

What all share (format): cell-based
Assay [1] deals with NFκB. Description: TNF-α-induced activation of NFκB in nuclei of normal human fibroblasts. Particulars: for NFκB (AU), mean / NFκB (AU), single values / NFκB, % control: TNF-α 25 ng/ml; for NFκB, % control: control with TNF-α = 100. The protocol:
This study makes it possible to evaluate the effects of the mixture according to the invention on the activation of NFκB, using a very sensitive specific method based on measuring the binding of the transcription factor NFκB to the consensus oligonucleotide sequence immobilized on a plastic support. Bound NFκB is secondarily recognized by a specific anti-NFκB antibody. This assay was carried out on isolated nuclei of normal human fibroblasts. The culture medium is DMEM, which comprises: • 2 mM L-glutamine • 50 IU/ml penicillin, 50 μg/ml streptomycin • 10% (v/v) fetal calf serum for the preculture and then a switch to serum-free medium The fibroblasts were precultured in 175 cm^2 flasks in DMEM medium containing 10 vol % of FCS until confluency, and the culture medium was then replaced with serum-free DMEM medium. The cells were then cultured in the presence of the products to be assayed or of references, for 1 hour. The proinflammatory agent […] (TNF-α, at 25 ng/ml final concentration; Sigma T0157) was then added to the culture medium and the cells were again incubated for 1 hour at 37° C. and 5% CO2. After incubation, the cells were harvested on ice and the cell nuclei of the various samples were isolated using the Sigma NUC-101 kit according to the protocol recommended by the supplier. The amount of proteins of each nuclear extract was determined using the Biorad 500-0116 assay kit. The amount of activated NFκB bound to the specific oligonucleotide was measured on the same amount of nuclear extract of each sample, i.e. 50 μl, diluted 50/50, after visualization using a specific anti-NFκB antibody. […] AU represents the arbitrary units of NFκB in the extract; this is the difference between the measured value and the background noise.

Assay [2] has as its system PGE-2. Nature of the assay: Effect of interferon-γ on release of PGE-2 by normal human keratinocytes. Here is the method:
(§1) The effects of interferon-gamma (IFN-γ) on the production and release of epidermal cytokines was studied on normal human keratinocytes (strain K02-1H4). 4 concentrations of IFN-g were tested:
The effects of IFN-γ on the production and release of PGE-2 was studied under the same experimental conditions as previously described (Table 31).

Assay [3] has as its system IL-1α. Description: Effect of interferon-γ on intracellular IL-1α production by normal human keratinocytes. The arrangement: multiplication of the basal amount of IL-1α: dose or concentration left out as unconfirmed. The text has this: The effects of interferon-gamma (IFN-γ) on the production and release of epidermal cytokines was studied on normal human keratinocytes (strain K02-1H4).

Assay [4] relates to TNF-α. Description: Effect of interferon-γ on production of TNF-α by normal human keratinocytes. Particulars: for TNF-α, mean: normal human keratinocytes, 24 h. The protocol: (§2) The study is carried out on normal human keratinocytes. The cells are first treated with 4 concentrations of interferon-gamma (IFN-γ), for 24 hours.
(§3) Next, the inflammation mediators are measured in the control cultures and cultures treated with IFN-γ, by assaying IL-8 and TNF-α in the culture supernatants and by assaying cell proteins. The method of measurement used is the Coomassie blue test; it is a standardized method.

Assay [5] has as its system IL-8. Description: Effect of interferon-γ on production and release of IL-8 by normal human keratinocytes. The protocol:
as §2, §3, §1
The effects of IFN-γ on the production and release of IL-8 were studied under the same experimental conditions.

Where [6] appears, read: K02-1H4, interferon-γ 1000 U/ml.
Where [7] appears, read: K02-1H4, interferon-γ 2000 U/ml.

As for `O=C(O)c1cc(/N=N/c2ccc(S(=O)(=O)Nc3ccccn3)cc2)ccc1O` [sulfasalazine, Sulfasalazine], in assay [1] (5 mM sulfasalazine), the “NFκB (AU), mean” value was 4.19 AU; the “NFκB (AU), single values” was 4.93 AU and 4.01 AU and 2.88 AU; the “NFκB, % control” value is listed as 44%.
For the compound “Interferon-γ: interferon-gamma used as irritative agent to stimulate keratinocytes”, the “stimulation of the production and release of PGE-2” value in assay [2] (100 to 2000 U/ml) was “not capable of stimulating”. In addition, the “Extracellular PGE-2, mean” value in assay [2] (K02-1H4, interferon-γ 100 U/ml) was found to be 3.60 pg/μg proteins; in assay [2] (K02-1H4, interferon-γ 500 U/ml) it was 3.45 pg/μg proteins; in assay [2] (setting [6]), 3.48 pg/μg proteins; in assay [2] (setting [7]) it was 3.80 pg/μg proteins. Also, the “multiplication of the basal amount of IL-1α” value in assay [3] (IFN-γ 1000) was found to be 2.6 fold; in assay [3] (IFN-γ 2000) it was 3.8 fold. In addition, the “IL-1α (intracellular), mean” value in assay [3] (K02-1H4, interferon-γ 100 U/ml) was determined as 6.80 pg/μg proteins; in assay [3] (K02-1H4, interferon-γ 500 U/ml) it was 8.29 pg/μg proteins; in assay [3] (setting [6]), 11.21 pg/μg proteins; in assay [3] (setting [7]), 12.48 pg/μg proteins. Besides, the “multiplication of the basal amount of TNF-α” value in assay [4] (interferon 1000 U/ml) stood at 3.3 fold; in assay [4] (interferon 2000 U/ml), 4.5 fold. Besides, the “TNF-α, mean” value in assay [4] (interferon-γ 100 U/ml) was 3.198 pg/μg proteins; in assay [4] (interferon-γ 500 U/ml), 8.605 pg/μg proteins; in assay [4] (interferon-γ 1000 U/ml), 10.773 pg/μg proteins; in assay [4] (interferon-γ 2000 U/ml) it was 14.545 pg/μg proteins. The “multiplication of the basal amount of IL-8” value was 26 fold in assay [5] (Example 8, interferon 1000 U/ml) and 38 fold in assay [5] (Example 8, interferon 2000 U/ml). Besides, the “IL-8, mean” value amounted to 0.980 pg/μg proteins in assay [5] (Example 8, normal human keratinocytes, 24 h, interferon-γ 100 U/ml); 1.301 pg/μg proteins in assay [5] (Example 8, normal human keratinocytes, 24 h, interferon-γ 500 U/ml); 1.991 pg/μg proteins in assay [5] (Example 8, normal human keratinocytes, 24 h, interferon-γ 1000 U/ml); 2.917 pg/μg proteins in assay [5] (Example 8, normal human keratinocytes, 24 h, interferon-γ 2000 U/ml); 0.252 pg/μg proteins in assay [5] (Example 12, K02-1H4, interferon-γ 100 U/ml); 0.350 pg/μg proteins in assay [5] (Example 12, K02-1H4, interferon-γ 500 U/ml). In addition, the “IL-8, mean” value in assay [5] (Example 12, K02-1H4, interferon-γ 1000 U/ml) was found to be 0.516 pg/μg proteins; in assay [5] (Example 12, K02-1H4, interferon-γ 2000 U/ml) it was 0.671 pg/μg proteins.
On to `C[C@@H]1C[C@H]2[C@@H]3CCC4=CC(=O)C=C[C@]4(C)[C@@]3(F)[C@@H](O)C[C@]2(C)[C@@]1(O)C(=O)CO` [dexamethasone, Dexamethasone], for which, in assay [1] (0.1 μM), the “nuclear translocation of NFκB induced by TNF-α” value is reported as “did not inhibit”. In assay [1] (0.1 μM dexamethasone), the “NFκB (AU), mean” value is reported as 9.46 AU; the “NFκB (AU), single values” is 10.94 AU and 7.3 AU and 9.90 AU and 9.67 AU; the “NFκB, % control” value was found to be 99%.
